Data set [1] deals with T1, PcpB (Sphingobium chlorophenolicum, UniProt P42535).
T1 construct: endogenous in cells; host or cells: Flavobacterium sp; Strain ATCC 39723, PCP-induced; enzyme purified in house from the native bacterium
The data set is described as follows: Substrate disappearance in the presence of PcpB (substrate range). The conditions noted are these: for (%) Relative Activity (substrate disappearance in the presence of PcpB): 10 nmoles substrate, 40 nmoles NADPH, PcpB 500 μg/ml, 80 mM potassium phosphate pH 7.5, 0.5% Tween 20, 23° C., PCP assumed 100%; for End Products of PcpB reaction: HPLC or GC/MS analysis. The data set is classed as biochemical, Flavobacterium sp. Strain ATCC 39723. The procedure: A stock solution of PCP (concentration, 37.6 mM) was prepared in 0.2M NaOH and stored in the dark at room temperature. Stock solutions of all other halogenated aromatic compounds (concentration, 20 mM) were prepared in absolute ethanol and stored at 4° C. in the dark. The NADPH solution of 10 mM was freshly prepared in 1 mM dithiothreitol and 1 mM Tris base (pH 13).
PcpB was purified as described above. Enzyme reactions were conducted in 80 mM potassium phosphate buffer (pH 7.5) with 0.5% Tween 20 at 23° C. The enzyme concentration was 500 μg/ml in all reactions.
All of the aromatic substrates and the corresponding enzyme product (aromatic portion) were monitored by reverse phase high-performance liquid chromatography (HPLC) analysis as described above for PCP and TeCH analysis, except that the absorptions at 285, 300, and 310 nm were recorded by using a Waters 490 E programmable multiwavelength UV detector. Gas chromatography/mass spectrometry (GC/MS) analysis was done as previously described (Topp and Akhtar, 1990).
I^- was measured by the Leuco crystal violet assay described above. NO2 was colorimetrically measured using the N-(1-naphthyl) ethylenediamine dihydrochloride-sulfanilamide reagent method (American Public Health Association, 17th Ed., 1989). NH3 was colorimetrically measured by Nesslerization method (American Public Health Association, 17th Ed., 1989). CN was measured by the colorimetric method of Nagashima (1984). NH2 OH was measured by the method of Magee and Burris (1954).
^a All enzyme reactions were conducted in a reaction mix volume of 10
μl, containing 10 nmoles of substrate, 40 nmoles of NADPH. The
substrate depletion and product production were measured by HPLC or GC/MS
analysis. Relative enzyme activity for PCP was assumed to be 100%; the
relative enzyme activities for other compounds were compared with that fo

For data set [2], the target named is T1, PcpB. The conditions noted are these: GC/MS; cited from earlier work.
The target of a further data set is T2, PcpC (Sphingobium chlorophenolicum, UniProt Q03520).
T2 construct: endogenous in cells; host or cells: Flavobacterium sp; Strain ATCC 39723, PCP-induced; enzyme purified in house from the native bacterium
T2 sequence (Q03520 2-248): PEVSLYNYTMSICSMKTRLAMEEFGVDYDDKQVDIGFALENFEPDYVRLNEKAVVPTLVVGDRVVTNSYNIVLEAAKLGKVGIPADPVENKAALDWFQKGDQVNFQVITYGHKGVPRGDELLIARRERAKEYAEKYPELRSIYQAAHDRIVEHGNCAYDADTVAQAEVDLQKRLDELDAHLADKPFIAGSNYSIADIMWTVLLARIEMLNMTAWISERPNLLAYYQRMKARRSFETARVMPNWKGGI
Format: biochemical, Flavobacterium sp. Strain ATCC 39723. The note with it: 33 μg of purified enzyme per ml; GC-MS of ether extract. The procedure:
Enzymatic activity assay. The reaction mixture contained 50 mM KPi buffer (pH 7.4), 0.4% Tween 20 (Sigma), 100 μM of TeCH, and 1 mM ascorbic acid. All the reactions were incubated at 23° C. in an anaerobic chamber containing an atmosphere of 85% N2, 5% CO2, and 10% H2 (Coy Laboratory Products Inc., Ann Arbor, Mich.). The reactions were stopped by addition of an equal volume of acetonitrile to the reaction mixture. TeCH stock solution (20 mM) was prepared in absolute ethanol. NADPH and NADH stock solutions (10 mM) were freshly prepared in 1 mM Tris buffer (pH 13) with 1 mM dithiothreitol. […]
Analytical method. […] TeCH, TrCH and DiCH were analyzed by HPLC on a Nova-Pak C-18 column (3.9 by 150 mm) (Waters, Milford, Mass.) with an 11 mM H3 PO4 -acetonitrile gradient as described above. Maximum absorption at 285, 300, 310 nm was recorded by using a Waters 490E programmable multiwave-length UV detector connected to a Maxima NEC computer workstation (Waters). […] TeCH and DiCH in the reaction mixtures were identified and quantified by comparison of their retention time and peak areas with that of authentic standards, respectively. TrCH was extracted with diethyl ether from the reaction mixture and analyzed by gas chromatography/mass spectrometry (GC/MS) as described by Topp and Akhtar (1990). […] GSH and the oxidized form of glutathione (GS-SG) were detected by the enzymatic method of Tietze (1969).

Data set [3] is described as follows: Stability of TeCH in the PcpB reaction mixture. Format: physicochemical.
Data set [4] addresses T1, PcpB. The data set is described as follows: PCP degradation as an assay of PcpB activity (HPLC). Format: biochemical, Flavobacterium sp. Strain ATCC 39723. The procedure: PcpB activity was assayed by measuring the depletion of PCP and/or the production of TECH. […] MgSO4 was later determined not to enhance the activity of the purified enzyme. Tween 20 was determined to facilitate reproducible quantitation of PCP by high-performance liquid chromatography (HPLC) analysis as described below. A 10 μl volume of reaction mixture was injected onto the HPLC column at 4 min. after the start of the reaction. One unit of enzyme activity was defined as the amount of enzyme that catalyzed the production of 1 μmol of TeCH or the consumption of 1 μmol of PCP per min under the assay conditions. The reaction rate was linear for about 5 min. with […] of the enzyme, and then the reaction rate decreased gradually over the next 15 min.
PCP and TeCH were analyzed by HPLC (Waters, Milford, Mass.) on a Nova-Pak C18 column (3.9 by 150 mm) with an 11 mM H3 PO4 -acetonitrile gradient (acetonitrile concentrations 10 to 65% 5 min.! and 65% 10 min.!). Maximum absorption at 310, 320, and 330 nm was recorded by use of a Waters 490E programmable multiwavelength UV detector connected to a Maxima NEC computer workstation (Waters). The retention times of PCP and TeCH were 11.5 and 8.9 min., respectively. PCP and TeCH were quantified by comparing their peak areas with the peak areas of authentic standards. NADPH concentration in the reaction mixture was measured by HPLC on the Nova-Pak C18 column with an isocratic 50 mM KPi buffer (ph 8.0). Flavins were determined by HPLC on a μCarbohydrate analyzing column (3.9 by 300 mm) (Analytical Sciences Incorporated, Santa Clara, Calif.) with an isocratic solution of acetonitrile-distilled water (60:40, vol/vol). Protein purity was checked by HPLC on a Delta Pak C18 30 nm column (3.9 by 150 mm) with a water-acetonitrile gradient containing 0.1% trifluoroacetic acid (acetonitrile concentrations, 15% 1 min.!, 15 to 40% 1 min.!, 40% 2 min.!, 40 to 75% 8 min.!, 75 to 100% 1 min.!, 100% 7 min.!, 100 to 15% 1 min.!) at a flow rate of 1 ml/min. […]
and incubated at room temperature for 4 min. before being analyzed by […]

Like-named read-outs stand apart in the source and are kept apart here.

T1 sequence (P42535 2-538): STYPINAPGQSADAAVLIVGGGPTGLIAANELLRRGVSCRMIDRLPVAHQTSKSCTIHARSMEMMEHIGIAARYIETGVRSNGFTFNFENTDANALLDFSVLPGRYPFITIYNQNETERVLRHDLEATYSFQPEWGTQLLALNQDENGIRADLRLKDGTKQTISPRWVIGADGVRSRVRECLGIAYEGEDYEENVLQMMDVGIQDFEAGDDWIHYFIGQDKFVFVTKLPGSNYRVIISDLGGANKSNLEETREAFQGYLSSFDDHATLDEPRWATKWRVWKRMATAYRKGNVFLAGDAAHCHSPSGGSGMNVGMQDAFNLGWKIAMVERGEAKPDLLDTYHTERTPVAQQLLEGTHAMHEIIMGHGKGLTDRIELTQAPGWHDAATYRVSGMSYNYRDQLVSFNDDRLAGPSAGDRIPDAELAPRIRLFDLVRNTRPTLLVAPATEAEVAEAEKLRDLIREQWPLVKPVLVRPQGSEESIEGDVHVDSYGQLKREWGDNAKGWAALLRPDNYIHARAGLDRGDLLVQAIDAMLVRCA

Turning to `Oc1c(Br)cc(Br)cc1Br` [2,4,6-Tribromophenol], at PcpB [1], the “(%) Relative Activity (substrate disappearance in the presence of PcpB)” value (from here on “(%) Relative Activity”) is given as 35%.

With `Oc1c(Cl)ccc(Cl)c1Cl` [2,3,6-Trichlorophenol, 2,3,6-trichlorophenol], at PcpB [1], the “(%) Relative Activity” value was 302% and the “End Products of PcpB reaction” value is on record as 2,3,6-trichloro-p-hydroquinone.

Turning to `N#Cc1cc(Br)c(O)c(Br)c1` [3,5-Dibromo-4-hydroxybenzonitrile], the “(%) Relative Activity” value on PcpB [1] came to 591%. The “End Products of PcpB reaction (from Topp et al.)” value on PcpB [2] is 2,6-dibromo-p-hydroquinone.

In the case of `Oc1c(Cl)c(Cl)c(O)c(Cl)c1Cl` [TeCH, 2,3,5,6-tetrachloro-p-hydroquinone], the “product of TeCH conversion by TeCH reductive dehalogenase” value at PcpC is listed as “DiCH”. Besides, the “stability of TeCH” value in data set [3] (optimal pH conditions (7.5 to 9.0)) is reported as “highly unstable”; in data set [3] (pH lower than 7.5) it was “relatively stable”.

`N#Cc1cc(I)c(O)c(I)c1` [3,5-Diiodo-4-hydroxybenzonitrile]: the “(%) Relative Activity” value at PcpB [1] amounted to 835%. Further, the “End Products of PcpB reaction” value on PcpB [1] (listed as 3,5-diiodo-4-hydroxylbenzonitrile) is listed as “DIHQ”.

For the compound `O=[N+]([O-])c1cc(Br)c(O)c(Br)c1` [2,6-Dibromo-4-nitrophenol], on PcpB [1], the “(%) Relative Activity” value was determined as 62%.

As for `Oc1c(Cl)c(Cl)cc(Cl)c1Cl` [2,3,5,6-Tetrachlorophenol], at PcpB [1], the “(%) Relative Activity” value came to 1212% and the “End Products of PcpB reaction” value is “TeCH”.

Consider `Oc1c(Cl)c(Cl)c(Cl)c(Cl)c1Cl` [Pentachlorophenol], for which the “(%) Relative Activity” value at PcpB [1] is 100%. Also, the “End Products of PcpB reaction” value on PcpB [1] (listed as PCP) is listed as “TeCH”. On PcpB [4] (37 μM PCP, 100 mM KPi buffer (pH 7.0), 100 μM NADPH, within 20 min.), the “Conversion of PCP to TeCH by purified PcpB” value is reported as “completely converted”.

With `Oc1ccccc1` [phenol], the “Extent of oxidation/degradation by the enzyme” value on PcpB [1] is “not degraded”.

Regarding `Oc1cc(Cl)c(Cl)c(Cl)c1` [3,4,5-Trichlorophenol, 3,4,5trichlorophenol], at PcpB [1], the “(%) Relative Activity” value was determined as 0% and the “End Products of PcpB reaction” value is “None”.

As for `Oc1c(Cl)cc(Cl)cc1Cl` [2,4,6-Trichlorophenol, 2,4,6-trichlorophenol], on PcpB [1], the “(%) Relative Activity” value worked out at 29% and the “End Products of PcpB reaction” value is listed as 2,6-dichloro-p-hydroquinone.

For `Oc1ccc(Cl)c(Cl)c1Cl` [2,3,4-Trichlorophenol], the “(%) Relative Activity” value at PcpB [1] is on record as 29%.

Take `Oc1c(F)c(F)c(F)c(F)c1F` [Pentafluorophenol]: the “(%) Relative Activity” value at PcpB [1] was 47%.

Consider `Oc1c(Cl)cccc1Cl` [2,6-Dichlorophenol, 2,6-dichlorophenol], for which, on PcpB [1], the “(%) Relative Activity” value is given as 344% and the “End Products of PcpB reaction” value was 2,6-dichloro-p-hydroquinone.

Regarding `Oc1c(I)cc(I)cc1I` [2,4,6-Triiodophenol], on PcpB [1], the “(%) Relative Activity” value was found to be 172% and the “End Products of PcpB reaction” value is reported as 2,6-diiodo-p-hydroquinone.

In the case of `Oc1cc(Cl)cc(Cl)c1` [3,5-Dichlorophenol, 3,5dichlorophenol], at PcpB [1], the “(%) Relative Activity” value is 0% and the “End Products of PcpB reaction” value was “None”.

On to `O=C(O)CN(CCN(CC(=O)O)CC(=O)O)CC(=O)O` [EDTA], for which, on PcpB [4], the “influence of additive on activity of purified PcpB” value is reported as “did not influence the enzymatic activity”.

With `O=S(=O)([O-])[O-].[Mg+2]` [MgSO4], the “influence of additive on activity of purified PcpB” value on PcpB [4] (addition to 5 mM) is recorded as “did not influence the enzymatic activity”.

As to `Oc1c(Br)cccc1Br` [2,6-Dibromophenol], the “(%) Relative Activity” value at PcpB [1] is 605%.

Take `Nc1cc(Cl)c(O)c(Cl)c1` [4-Amino-2,6-dichlorophenol]: the “(%) Relative Activity” value on PcpB [1] was 93%.

In the case of `Oc1cccc(Cl)c1Cl` [2,3-Dichlorophenol], at PcpB [1], the “(%) Relative Activity” value stood at 24%.

The values are drawn from patent US5512478A, “Genes and enzymes involved in the microbial degradation of pentachlorophenol” (Idaho Research Foundation, Inc., priority 1994, dated 1996).
